Assay results published in patent publication US20240246977A1, “DEGRADATION OF BRUTON'S TYROSINE KINASE (BTK) BY CONJUGATION OF BTK INHIBITORS WITH E3 LIGASE LIGAND AND METHOD OF USE” (BeiGene Switzerland GmbH, priority 2021, published 2024).

Assays:
BTK = BTK (Homo sapiens, UniProt Q06187); assay: BTK cell degradation in TMD-8 cells, HTRF assay; type: cell-based; design: endogenous in cells; host or cells: TMD-8 cells; conditions: 6 h treatment, IC50 (DC50) of BTK degradation
Method in brief: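 BTK levels read by HTRF in lysates of TMD-8 cells exposed to compounds for 6 h, eight concentrations at 6-fold steps in 0.2% DMSO. Percent degradation versus DMSO and low controls was fitted with a four-parameter equation to give DC50; Dmax is maximal degradation.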

HEK-293 cells = assay: HEK-293 cytotoxicity detection (CellTiter-Glo); type: cell-based; conditions: Homo sapiens, 72 h, 72 h incubation, CellTiter-Glo luminescence, read-out: HEK293
Method in brief: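 HEK-293 cells exposed 72 h to 8 compounds doses (4-fold dilutions, top stock 5 mM at 500×) in 0.2% DMSO. Viability by CellTiter-Glo luminescence; inhibition normalised to DMSO high control and low control, IC50 from four-parameter curve fit.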

BTK, sequence (Q06187 whole entry): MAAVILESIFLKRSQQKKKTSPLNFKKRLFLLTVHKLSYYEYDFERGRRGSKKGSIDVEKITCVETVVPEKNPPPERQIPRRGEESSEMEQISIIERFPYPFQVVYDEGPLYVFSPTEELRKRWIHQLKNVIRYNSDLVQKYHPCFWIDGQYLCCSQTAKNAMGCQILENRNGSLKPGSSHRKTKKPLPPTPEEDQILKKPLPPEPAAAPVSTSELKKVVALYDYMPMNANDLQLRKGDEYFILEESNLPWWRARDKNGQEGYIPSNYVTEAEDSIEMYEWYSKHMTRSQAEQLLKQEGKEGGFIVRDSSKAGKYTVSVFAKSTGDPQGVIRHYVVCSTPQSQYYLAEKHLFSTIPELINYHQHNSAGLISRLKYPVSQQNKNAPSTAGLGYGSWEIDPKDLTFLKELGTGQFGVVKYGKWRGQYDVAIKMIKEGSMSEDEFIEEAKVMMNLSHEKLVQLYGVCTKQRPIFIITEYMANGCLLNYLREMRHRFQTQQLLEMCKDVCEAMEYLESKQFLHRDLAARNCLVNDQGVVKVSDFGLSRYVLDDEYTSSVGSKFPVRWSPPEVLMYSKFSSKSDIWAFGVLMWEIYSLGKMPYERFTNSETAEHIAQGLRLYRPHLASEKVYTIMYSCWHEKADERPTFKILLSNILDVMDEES

Row | DC50 (BTK) [nM] | Compound | IC50 (HEK-293 cells) [nM]
1 | 0.622 | Cc1cccc(NC(=O)c2ccc(-c3nn4c(c3C(N)=O)Nc3ccc(N5CCN(C6CC(c7ccc([C@H]8CCC(=O)NC8=O)cc7)C6)CC5)cc3CC4)c(F)c2C)n1 (stereo partly drawn) [Example B67, (R)-7-(4-(3-(4-(2,6-dioxopiperidin-3-yl)phenyl)cyclobutyl)piperazin-1-yl)-2-(2-fluoro-3-methyl-4-((6-methylpyridin-2-yl)carbamoyl)phenyl)-9,10-dihydro-4H-benzo[d]pyrazolo[1,5-a][1,3]diazepine-3-carboxamide] | 96.8
2 | 0.343 | COc1ccc(F)cc1C(=O)NCc1ccc(-c2nn3c(c2C(N)=O)Nc2ccc(N4CCN(CC5CCN(c6ccc(N7CCC(=O)NC7=O)cc6)CC5)CC4)cc2CC3)cc1 [Example C3, 7-(4-((1-(4-(2,4-dioxotetrahydropyrimidin-1(2H)-yl)phenyl)piperidin-4-yl)methyl)piperazin-1-yl)-2-(4-((5-fluoro-2-methoxybenzamido)methyl)phenyl)-9,10-dihydro-4H-benzo[d]pyrazolo[1,5-a][1,3]diazepine-3-carboxamide] | > 10000
3 | 11.9 | CC(C)(C)c1ccc(Oc2ccc(-c3nn4c(c3C(N)=O)Nc3ccc(C5CCN(CC6CCN(c7ccc(N8CCC(=O)NC8=O)cc7)CC6)CC5)cc3CC4)cc2)cc1 [Example A31, 2-(4-(4-(tert-butyl)phenoxy)phenyl)-7-(1-((1-(4-(2,4-dioxotetrahydropyrimidin-1(2H)-yl)phenyl)piperidin-4-yl)methyl)piperidin-4-yl)-9,10-dihydro-4H-benzo[d]pyrazolo[1,5-a][1,3]diazepine-3-carboxamide] | 556
4 | 1.56 | COc1ccc(C2CC2)cc1C(=O)NCc1ccc(-c2nn3c(c2C(N)=O)Nc2ccc(N4CCN(CC5CCN(c6ccc(N7CCC(=O)NC7=O)cc6)CC5)CC4)cc2CC3)cc1 [Example C29, 2-(4-((5-cyclopropyl-2-methoxybenzamido)methyl)phenyl)-7-(4-((1-(4-(2,4-dioxotetrahydropyrimidin-1(2H)-yl)phenyl)piperidin-4-yl)methyl)piperazin-1-yl)-9,10-dihydro-4H-benzo[d]pyrazolo[1,5-a][1,3]diazepine-3-carboxamide] | > 10000
5 | 12.5 | COc1ccncc1C(=O)N[C@H](C)c1ccc(-c2nn3c(c2C(N)=O)Nc2ccc(N4CCN(CC5CCN(c6ccc(N7CCC(=O)NC7=O)cc6)CC5)CC4)cc2CC3)cc1 [Example C18, (R)-7-(4-((1-(4-(2,4-dioxotetrahydropyrimidin-1(2H)-yl)phenyl)piperidin-4-yl)methyl)piperazin-1-yl)-2-(4-(1-(4-methoxynicotinamido)ethyl)phenyl)-9,10-dihydro-4H-benzo[d]pyrazolo[1,5-a][1,3]diazepine-3-carboxamide] | > 10000
6 | 9.74 | COc1cc(F)ccc1C(=O)NCc1ccc(-c2nn3c(c2C(N)=O)Nc2ccc(N4CCN(CC5CCN(c6ccc(N7CCC(=O)NC7=O)cc6)CC5)CC4)cc2CC3)cc1C [Example C41, 7-(4-((1-(4-(2,4-dioxotetrahydropyrimidin-1(2H)-yl)phenyl)piperidin-4-yl)methyl)piperazin-1-yl)-2-(4-((4-fluoro-2-methoxybenzamido)methyl)-3-methylphenyl)-9,10-dihydro-4H-benzo[d]pyrazolo[1,5-a][1,3]diazepine-3-carboxamide] | > 10000
7 | 4.58 | NC(=O)c1c(-c2ccc(Oc3ccccc3)cc2)nn2c1Nc1ccc(C(=O)N[C@H]3CC[C@H](CN4CCN(c5cc6c(cc5F)C(=O)N(C5CCC(=O)NC5=O)C6=O)CC4)CC3)cc1CC2 (stereo partly shown) [Example A12, N^7-((1r,4r)-4-((4-(2-(2,6-dioxopiperidin-3-yl)-6-fluoro-1,3-dioxoisoindolin-5-yl)piperazin-1-yl)methyl)cyclohexyl)-2-(4-phenoxyphenyl)-9,10-dihydro-4H-benzo[d]pyrazolo[1,5-a][1,3]diazepine-3,7-dicarboxamide] | 396
8 | 0.758 | COc1ccccc1C(=O)NCc1ccc(-c2nn3c(c2C(N)=O)Nc2ccc(N4CCN(CC5CCN(c6ccc(N7CCC(=O)NC7=O)cc6)CC5)CC4)cc2CC3)cc1 [Example C1, 7-(4-((1-(4-(2,4-dioxotetrahydropyrimidin-1(2H)-yl)phenyl)piperidin-4-yl)methyl)piperazin-1-yl)-2-(4-((2-methoxybenzamido)methyl)phenyl)-9,10-dihydro-4H-benzo[d]pyrazolo[1,5-a][1,3]diazepine-3-carboxamide] | > 10000
9 | 2.19 | NC(=O)c1c(-c2ccc(C(=O)Nc3ccc(C(F)(F)F)cn3)cc2)nn2c1Nc1ccc(N3CCN(CC4CCN(c5ccc(N6CCC(=O)NC6=O)cc5)CC4)CC3)cc1CC2 [Example B17, 7-(4-((1-(4-(2,4-dioxotetrahydropyrimidin-1(2H)-yl)phenyl)piperidin-4-yl)methyl)piperazin-1-yl)-2-(4-((5-(trifluoromethyl)pyridin-2-yl)carbamoyl)phenyl)-9,10-dihydro-4H-benzo[d]pyrazolo[1,5-a][1,3]diazepine-3-carboxamide] | > 10000
10 | 2.01 | Cc1cccc(NC(=O)c2ccc(-c3nn4c(c3C(N)=O)Nc3ccc(N5CCN(CC6CCN(c7ccc8c(c7)CN(C7CCC(=O)NC7=O)C8=O)CC6)CC5)cc3CC4)c(F)c2C)n1 (stereo not shown) [Example B58, 7-(4-((1-(2-(2,6-dioxopiperidin-3-yl)-1-oxoisoindolin-5-yl)piperidin-4-yl)methyl)piperazin-1-yl)-2-(2-fluoro-3-methyl-4-((6-methylpyridin-2-yl)carbamoyl)phenyl)-9,10-dihydro-4H-benzo[d]pyrazolo[1,5-a][1,3]diazepine-3-carboxamide] | > 10000
11 | 9.26 | NC(=O)c1c(-c2ccc(Oc3ccccc3)cc2)nn2c1Nc1ccc(OCCC3CCN(c4ccc(N5CCC(=O)NC5=O)cc4)CC3)cc1CC2 [Example A24, 7-(2-(1-(4-(2,4-dioxotetrahydropyrimidin-1(2H)-yl)phenyl)piperidin-4-yl)ethoxy)-2-(4-phenoxyphenyl)-9,10-dihydro-4H-benzo[d]pyrazolo[1,5-a][1,3]diazepine-3-carboxamide] | 235
12 | 0.526 | Cc1cccc(NC(=O)c2ccc(-c3nn4c(c3C(N)=O)Nc3ccc(N5CCN(C6CN(C7CN(c8ccc9c(c8)C(=O)N(C8CCC(=O)NC8=O)C9=O)C7)C6)CC5)cc3CC4)c(F)c2C)n1 (stereo not shown) [Example B57, 7-(4-(1′-(2-(2,6-dioxopiperidin-3-yl)-1,3-dioxoisoindolin-5-yl)-[1,3′-biazetidin]-3-yl)piperazin-1-yl)-2-(2-fluoro-3-methyl-4-((6-methylpyridin-2-yl)carbamoyl)phenyl)-9,10-dihydro-4H-benzo[d]pyrazolo[1,5-a][1,3]diazepine-3-carboxamide] | > 10000
13 | 1.86 | Cc1c(C(=O)Nc2cn(C)cn2)ccc(-c2nn3c(c2C(N)=O)Nc2ccc(N4CCN(C[C@H]5CCN(c6ccc(N7CCC(=O)NC7=O)cc6)C5)CC4)cc2CC3)c1F [Example B92, (R)-7-(4-((1-(4-(2,4-dioxotetrahydropyrimidin-1(2H)-yl)phenyl)pyrrolidin-3-yl)methyl)piperazin-1-yl)-2-(2-fluoro-3-methyl-4-((1-methyl-1H-imidazol-4-yl)carbamoyl)phenyl)-9,10-dihydro-4H-benzo[d]pyrazolo[1,5-a][1,3]diazepine-3-carboxamide] | > 10000
14 | > 2000 | Cc1cccc(NC(=O)c2ncc(-c3nn4c(c3C#N)Nc3ccc(N5CCN(CC6CCN(c7ccc(N8CCC(=O)NC8=O)cc7)CC6)CC5)cc3CC4)cc2C)n1 [Example B31, 5-(3-cyano-7-(4-((1-(4-(2,4-dioxotetrahydropyrimidin-1(2H)-yl)phenyl)piperidin-4-yl)methyl)piperazin-1-yl)-9,10-dihydro-4H-benzo[d]pyrazolo[1,5-a][1,3]diazepin-2-yl)-3-methyl-N-(6-methylpyridin-2-yl)picolinamide] | 133
15 | 9.19 | COc1cc(F)c(F)cc1C(=O)NCc1ccc(-c2nn3c(c2C(N)=O)Nc2ccc(N4CCN(CC5CCN(c6ccc(N7CCC(=O)NC7=O)cc6)CC5)CC4)cc2CC3)cc1C [Example C33, 2-(4-((4,5-difluoro-2-methoxybenzamido)methyl)-3-methylphenyl)-7-(4-((1-(4-(2,4-dioxotetrahydropyrimidin-1(2H)-yl)phenyl)piperidin-4-yl)methyl)piperazin-1-yl)-9,10-dihydro-4H-benzo[d]pyrazolo[1,5-a][1,3]diazepine-3-carboxamide] | > 10000
16 | 3.8 | COc1ccccc1C(=O)NCc1ccc(-c2nn3c(c2C(N)=O)Nc2ccc(N4CCN(CC5CCN(c6ccc(N7CCC(=O)NC7=O)cc6)CC5)CC4)cc2CC3)c(OC)c1 [Example C44, 7-(4-((1-(4-(2,4-dioxotetrahydropyrimidin-1(2H)-yl)phenyl)piperidin-4-yl)methyl)piperazin-1-yl)-2-(2-methoxy-4-((2-methoxybenzamido)methyl)phenyl)-9,10-dihydro-4H-benzo[d]pyrazolo[1,5-a][1,3]diazepine-3-carboxamide] | 642
17 | 15.6 | Cc1cc(-c2nn3c(c2C(N)=O)Nc2ccc(N4CCN(CC5CCN(c6ccc(N7CCC(=O)NC7=O)cc6)CC5)CC4)cc2CC3)ccc1CNC(=O)c1nc(C(C)(C)C)no1 [Example C8, 3-(tert-butyl)-N-(4-(3-carbamoyl-7-(4-((1-(4-(2,4-dioxotetrahydropyrimidin-1(2H)-yl)phenyl)piperidin-4-yl)methyl)piperazin-1-yl)-9,10-dihydro-4H-benzo[d]pyrazolo[1,5-a][1,3]diazepin-2-yl)-2-methylbenzyl)-1,2,4-oxadiazole-5-carboxamide] | > 10000
